Measurements published in PMC10381533, “Inhibitory Effects of the Fungal Pigment Rubiginosin C on Hyphal and Biofilm Formation in Candida albicans and Candida auris” (Journal of Fungi, 2023).

Experiments:
[1] = test system: C. auris [DSM 21092] biofilm; experiment: Effects on C. auris biofilms of various ages (2 h, 12 h, 24 h), crystal violet; format: cell-based, Candida auris
Procedure: The turbidity of C. auris [DSM 21092] dispersion was measured at 280 nm and diluted to the turbidity of a 0.5 McFarland standard. C. auris was cultured in RPMI 1640 medium supplemented with […] MOPS (37 °C, 150 rpm, 2 h, 12 h, 24 h) in 96-well non-tissue microtiter plates (Falcon no. 351172, Thermo Fisher Scientific). After incubation, C. auris biofilms of various ages (2 h, 12 h, 24 h) were washed once by PBS buffer and treated (37 °C, 150 rpm, 24 h) with serial diluted Rub C (250–0.02 μg/mL) in fresh RPMI 1640 medium supplemented with […] MOPS. Samples of each time point were further processed and evaluated by a microtiter plate reader, as described above.

[2] = test system: preformed S. aureus biofilm; experiment: Dispersal effect on preformed S. aureus biofilm; format: cell-based, Staphylococcus aureus; conditions: 250 µg/mL
Procedure: compounds (250–2 μg/mL) in CASO with 4% glucose broth. The inhibition of biofilm formation was evaluated by staining with 150 μL of 0.1% crystal violet (CV; Thermo Fisher) following previously established protocols. In the next step, the supernatant of the 96-well plate was discarded and the wells were rinsed once with PBS buffer. The remaining biofilms were stained at room temperature for 15 min, rinsed three times with PBS buffer, and finally dissolved in 150 μL ethanol (95%). The absorbance of the resulting solution at 530 nm was quantified using a plate reader (Synergy 2, BioTek). Methanol (2.5%) and microporenic acid A (MAA) (250–2 μg/mL) were used as negative and positive controls. Standard deviations (SD) of two repeats with duplicates were 10% or less. […]
Table S2: Selected azaphilones were tested against the formation of biofilm of S. aureus, P. aeruginosa as well as C. auris and dispersal effect on preformed biofilm of S. aureus compared to solvent control (= 0%), respectively. SDs are shown as ±SD.
Compounds Strains Concentrations [µg/mL] […]

Structure (SMILES)	biofilm attachment compared to solvent control (=0%) ([1]; 2 h old C. auris biofilm, 2 µg/mL)	biofilm attachment compared to solvent control (=0%) ([1]; 2 h old C. auris biofilm, 3.9 µg/mL)	biofilm attachment compared to solvent control (=0%) ([1]; 2 h old C. auris biofilm, 7.8 µg/mL)	biofilm attachment compared to solvent control (=0%) ([1]; 2 h old C. auris biofilm, 15.6 µg/mL)	biofilm attachment compared to solvent control (=0%) ([1]; 2 h old C. auris biofilm, 31.3 µg/mL)	biofilm attachment compared to solvent control (=0%) ([1]; 2 h old C. auris biofilm, 62.5 µg/mL)	biofilm attachment compared to solvent control (=0%) ([1]; 12 h old C. auris biofilm, 2 µg/mL)	biofilm attachment compared to solvent control (=0%) ([1]; 12 h old C. auris biofilm, 3.9 µg/mL)	biofilm attachment compared to solvent control (=0%) ([1]; 12 h old C. auris biofilm, 7.8 µg/mL)	biofilm attachment compared to solvent control (=0%) ([1]; 12 h old C. auris biofilm, 15.6 µg/mL)	biofilm attachment compared to solvent control (=0%) ([1]; 12 h old C. auris biofilm, 31.3 µg/mL)	biofilm attachment compared to solvent control (=0%) ([1]; 12 h old C. auris biofilm, 62.5 µg/mL)	biofilm attachment compared to solvent control (=0%) ([1]; 24 h old C. auris biofilm, 2 µg/mL)	biofilm attachment compared to solvent control (=0%) ([1]; 24 h old C. auris biofilm, 3.9 µg/mL)	biofilm attachment compared to solvent control (=0%) ([1]; 24 h old C. auris biofilm, 7.8 µg/mL)	biofilm attachment compared to solvent control (=0%) ([1]; 24 h old C. auris biofilm, 15.6 µg/mL)	biofilm attachment compared to solvent control (=0%) ([1]; 24 h old C. auris biofilm, 31.3 µg/mL)	biofilm attachment compared to solvent control (=0%) ([1]; 24 h old C. auris biofilm, 62.5 µg/mL)	dispersal effect on preformed biofilm of S. aureus compared to solvent control (= 0%) [2]
C[C@@H]1[C@H](O)[C@@H](C)/C=C/C=C/CC/C=C/C=C/C=C/C=C/C(O[C@H]2O[C@H](C)[C@@H](O)[C@H](N)[C@@H]2O)CC2O[C@](O)(CC(O)C(O)CCC(O)CC(O)CC(O)CC(=O)O[C@H]1C)CC(O)C2C(=O)O (stereo partly shown) [Nystatin, nystatin]	84 ±25%	39 ±10%	58 ±16%	53 ±10%	50 ±10%	47 ±8%	96 ±12%	64 ±12%	49 ±10%	43 ±6%	41 ±9%	45 ±8%	93 ±28%	48 ±2%	51 ±9%	49 ±5%	50 ±10%	46 ±5%	–
CC(=O)OC/C=C/C1=CC2=C(CO1)C(=O)[C@@](C)(OC(=O)c1c(C)cc(O)cc1O)C(=O)/C2=C\C=C\C1=CC2=C(CO1)C(=O)[C@@](C)(OC(=O)c1c(C)cc(O)cc1O)[C@@H](O)C2 [Rut B, rutilin B]	–	–	–	–	–	–	–	–	–	–	–	–	–	–	–	–	–	–	51 ±8%
